Measured values as given in patent publication US6538151B1, “Modifications of 2-amino-4-(4-fluorobenzylamino)-1-ethoxycarbonylaminobenzene, and processes for their preparation” (Asta Medica Aktiengesellschaft, priority 1997, dated 2003).

Assays:
Assay type in all cases: physicochemical
[1] = Lattice stability on contact with solvents; details: contact with solvents such as water, ethanol, acetone or toluene
[2] = Stability of the crystal structure (lattice) on heating and storage
Experimental: The crystal structure is stable up to approx. 80° C.

[3] = Solubility behaviour of the crystals; details: finely granular crystals
Description: The modifications B and C can be employed for specific pharmaceutical forms such as capsules and dry ampoules.

CCOC(=O)Nc1ccc(NCc2ccc(F)cc2)cc1N [modification A, 2-amino-4-(4-fluorobenzylamino)-1-ethoxycarbonylaminobenzene]
lattice change on contact with solvents [1]: no lattice change | lattice changes after storage ([2]; relatively long storage at temperatures up to 60° C. and relative atmospheric humidities up to 70%): no lattice changes are observed | crystal structure is stable up to (temperature) ([2]; solid state, temperature limit of lattice stability): approx. 80 °C

CCOC(=O)Nc1ccc(NCc2ccc(F)cc2)cc1N [modification C, 2-amino-4-(4-fluorobenzylamino)-1-ethoxycarbonylaminobenzene]
speed of dissolution of crystals [3]: particularly rapidly soluble
